Target: T1, SHP2 (Homo sapiens, UniProt Q06124)
T1 construct: endogenous in cells; host or cells: MV 411
T1 sequence (Q06124 1-593): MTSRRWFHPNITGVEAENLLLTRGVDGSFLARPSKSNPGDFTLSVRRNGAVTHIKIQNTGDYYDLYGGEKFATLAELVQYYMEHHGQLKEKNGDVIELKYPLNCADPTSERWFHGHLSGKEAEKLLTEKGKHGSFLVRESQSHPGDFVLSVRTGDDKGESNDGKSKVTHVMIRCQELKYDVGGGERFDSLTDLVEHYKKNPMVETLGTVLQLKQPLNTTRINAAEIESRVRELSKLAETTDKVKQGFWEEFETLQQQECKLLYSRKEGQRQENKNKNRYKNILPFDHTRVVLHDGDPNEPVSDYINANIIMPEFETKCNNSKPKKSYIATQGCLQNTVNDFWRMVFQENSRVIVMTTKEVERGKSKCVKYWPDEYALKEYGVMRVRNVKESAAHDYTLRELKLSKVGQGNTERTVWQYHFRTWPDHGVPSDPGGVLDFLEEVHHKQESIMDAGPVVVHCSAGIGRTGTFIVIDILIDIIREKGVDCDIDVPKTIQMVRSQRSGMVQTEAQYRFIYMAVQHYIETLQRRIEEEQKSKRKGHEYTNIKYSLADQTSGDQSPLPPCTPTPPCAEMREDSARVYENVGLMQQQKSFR
Assay: SHP2 degradation in MV 411 cells by Western blot (median degradation concentration)
Assay type: cell-based
Conditions: 24 hours with compound, SHP-2 antibody Western blot, concentration of the median degradation from exposure gray scale
Description: Reagent: complete DMEM medium, Gibco products. Fetal bovine serum, manufactured byThermoFisher. Trypsin, manufactured byThermoFisher. The SHP-2 antibody is produced by CST. Cell line, MV 411, the blast cells of patients with bi-phenotypic B-myelomonocytic leukemia, was established by Rovera. Measuring method: took the cells growing in the logarithmic phase, collected and suspended the cells in DMEM containing 10% fetal calf serum, gently blowed and beated the cells into single cell suspension by using a pipette, and counted the living cells under a microscope. […] Then cultured for 24 hours. All cells were collected and washed with PBS, lysed with RIPA lysate and collected into a 1.7 ml tube. […] metal bath for 5 minutes to fully denature the protein. 100V constant voltage electrophoresis after Western condensation and loading, stopped when bromophenol blue band reached the end point. The cellulose acetate membrane is transferred by a wet method, 45 minutes at a constant flow of 300-500 mA, 5% BSA is used for blocking for 1-2 hours at room temperature. Primary antibody of 1:500-1:8000 were used for incubation at 25° C. for 40 minutes and then washed three times. Secondary antibody was used for incubation for 15-40 min at room temperature. The proteins were detected using ultrasensitive ECL luminophores such as […], using an X-Ray film automatic developing machine. The concentration of the median degradation was calculated by exposure gray scale.

SMILES	DC50 [nM]
CCOc1cc2oc(-c3ccc(NCCOCCOCCOCCOc4cccc5c4C(=O)N(C4CCC(=O)NC4=O)C5=O)cc3Cl)cc(=O)c2cc1-c1cccc(CO)c1 (centres unmarked) [Compound 11]	50
CCOc1cc2oc(-c3ccc(NCCOCCOCCOCCOc4cccc5c4C(=O)N(C4CCC(=O)NC4=O)C5=O)cc3Cl)cc(=O)c2cc1-c1ccc2c(c1)CCC2 (centres unmarked) [Compound 12]	920
CCOc1cc2oc(-c3ccc(NCCOCCOCCOCCOc4cccc5c4C(=O)N(C4CCC(=O)NC4=O)C5=O)cc3Cl)cc(=O)c2cc1-c1cc(C=O)ccc1F (centres unmarked) [Compound 13]	50
CCOc1cc2oc(-c3ccc(NCCOCCOCCOCCOc4cccc5c4C(=O)N(C4CCC(=O)NC4=O)C5=O)cc3Cl)cc(=O)c2cc1-c1cccc(C(C)=O)c1 (centres unmarked) [Compound 14]	25
CCOc1cc2oc(-c3ccc(NCCOCCOCCOCCOc4cccc5c4C(=O)N(C4CCC(=O)NC4=O)C5=O)cc3Cl)cc(=O)c2cc1-c1ccc(OC)cc1F (centres unmarked) [Compound 15]	250
CCOc1cc2oc(-c3ccc(NCCOCCOCCOCCOc4cccc5c4C(=O)N(C4CCC(=O)NC4=O)C5=O)cc3Cl)cc(=O)c2cc1-c1cccc(C(N)=O)c1 (centres unmarked) [Compound 16]	250
CCOc1cc2oc(-c3ccc(NCCOCCOCCOCCOc4cccc5c4C(=O)N(C4CCC(=O)NC4=O)C5=O)cc3Cl)cc(=O)c2cc1-c1cc(F)cc(C=O)c1 (centres unmarked) [Compound 17]	250
CCOc1cc2oc(-c3ccc(NCCOCCOCCOCCOc4cccc5c4C(=O)N(C4CCC(=O)NC4=O)C5=O)cc3Cl)cc(=O)c2cc1-c1cccc(C=O)c1 (centres unmarked) [Compound 18]	> 1000
CCOc1cc2oc(-c3ccc(OCCOCCOCCOCCOc4cccc5c4C(=O)N(C4CCC(=O)NC4=O)C5=O)cc3Cl)cc(=O)c2cc1-c1cccc(N)c1 (centres unmarked) [Compound 26]	3500
CCOc1cc2oc(-c3ccc(OCCOCCOCCOCCOc4cccc5c4C(=O)N(C4CCC(=O)NC4=O)C5=O)cc3Cl)cc(=O)c2cc1-c1cccc(C(=O)OC)c1F (centres unmarked) [Compound 27]	2
CCOc1cc2oc(-c3ccc(OCCOCCOCCOCCOc4cccc5c4C(=O)N(C4CCC(=O)NC4=O)C5=O)cc3Cl)cc(=O)c2cc1-c1ccc(S(C)(=O)=O)cc1F (centres unmarked) [Compound 28]	110
CCOc1cc2oc(-c3ccc(OCCOCCOCCOCCOc4cccc5c4C(=O)N(C4CCC(=O)NC4=O)C5=O)cc3Cl)cc(=O)c2cc1-c1cncc(C=O)c1 (centres unmarked) [Compound 29]	15
CCOc1cc2oc(-c3ccc(OCCOCCOCCOCCOc4cccc5c4C(=O)N(C4CCC(=O)NC4=O)C5=O)cc3Cl)cc(=O)c2cc1-c1cc(N)cc(C(=O)O)c1 (centres unmarked) [Compound 30]	2000
CCOc1cc2oc(-c3ccc(OCCOCCOCCOCCOc4cccc5c4C(=O)N(C4CCC(=O)NC4=O)C5=O)cc3Cl)cc(=O)c2cc1-c1ccc2c(c1)COC2=O (centres unmarked) [Compound 31]	300
CCOc1cc2oc(-c3ccc(OCCOCCOCCOCCOc4cccc5c4C(=O)N(C4CCC(=O)NC4=O)C5=O)cc3Cl)cc(=O)c2cc1-c1cc(N)cc(C(N)=O)c1 (centres unmarked) [Compound 32]	850
CCOc1cc2oc(-c3ccc(OCCOCCOCCOCCOc4cccc5c4C(=O)N(C4CCC(=O)NC4=O)C5=O)cc3Cl)cc(=O)c2cc1-c1ccc(S(=O)(=O)N2CCOCC2)cc1F (centres unmarked) [Compound 33]	3500
CCOc1cc2oc(-c3ccc(OCCOCCOCCOCCOc4cccc5c4C(=O)N(C4CCC(=O)NC4=O)C5=O)cc3Cl)cc(=O)c2cc1-c1ccc(S(=O)(=O)N2CCOCC2)cc1 (centres unmarked) [Compound 34]	42
CCOc1cc2oc(-c3ccc(OCCOCCOCCOCCOc4ccc5c(c4)C(=O)N(C4CCC(=O)NC4=O)C5=O)cc3Cl)cc(=O)c2cc1-c1cc(C(C)=O)cc(C(N)=O)c1 (centres unmarked) [Compound 35]	25
CCOc1cc2oc(-c3ccc(NCCOCCOCCOCCOc4ccc5c(c4)C(=O)N(C4CCC(=O)NC4=O)C5=O)cc3Cl)cc(=O)c2cc1-c1cccc(C(C)=O)c1 (centres unmarked) [Compound 36]	20
CCOc1cc2oc(-c3ccc(OCCOCCOCCOCCOc4cccc5c4C(=O)N(C4CCC(=O)NC4=O)C5=O)cc3Cl)cc(=O)c2cc1-c1cc(N)cc(C(=O)OC)c1 (centres unmarked) [Compound 40]	750
CCOC(=O)c1cncc(-c2cc3c(=O)cc(-c4ccc(OCCOCCOCCOCCOc5cccc6c5C(=O)N(C5CCC(=O)NC5=O)C6=O)cc4Cl)oc3cc2OCC)c1 (centres unmarked) [Compound 41]	1000

SMILES	DC50 [nM]
CCOc1cc2oc(-c3ccc(OCCOCCOCCOCCOc4cccc5c4C(=O)N(C4CCC(=O)NC4=O)C5=O)cc3Cl)cc(=O)c2cc1-c1cc(C)cc(C(N)=O)c1 (centres unmarked) [Compound 42]	750
CCOc1cc2oc(-c3ccc(OCCOCCOCCOCCOc4cccc5c4C(=O)N(C4CCC(=O)NC4=O)C5=O)cc3Cl)cc(=O)c2cc1-c1cc(C(N)=O)cc(C(C)(C)C)c1 (centres unmarked) [Compound 43]	> 250
CCOc1cc2oc(-c3ccc(OCCOCCOCCOCCOc4cccc5c4C(=O)N(C4CCC(=O)NC4=O)C5=O)cc3Cl)cc(=O)c2cc1-c1cc(C(N)=O)cc(C(F)(F)F)c1 (centres unmarked) [Compound 44]	750
CCOc1cc2oc(-c3ccc(OCCOCCOCCOCCOc4cccc5c4C(=O)N(C4CCC(=O)NC4=O)C5=O)cc3Cl)cc(=O)c2cc1-c1ccccc1C(N)=O (centres unmarked) [Compound 45]	> 250
CCOc1cc2oc(-c3ccc(OCCOCCOCCOCCOc4cccc5c4C(=O)N(C4CCC(=O)NC4=O)C5=O)cc3Cl)cc(=O)c2cc1-c1cc(C(N)=O)ccc1O (centres unmarked) [Compound 46]	6
CCOc1cc2oc(-c3ccc(NCCOCCOCCOCCOc4cccc5c4C(=O)N(C4CCC(=O)NC4=O)C5=O)cc3Cl)cc(=O)c2cc1CN1CCC=C(n2c(=O)[nH]c3cc(NS(=O)(=O)C4CC4)ccc32)C1 (centres unmarked) [Compound 50]	> 750
CCOc1cc2oc(-c3ccc(NCCOCCOCCOCCOc4cccc5c4C(=O)N(C4CCC(=O)NC4=O)C5=O)cc3Cl)cc(=O)c2cc1CN1CCCC[C@@H]1C(N)=O (some centres unmarked) [Compound 51]	> 250
CCOc1cc2oc(-c3ccc(NCCOCCOCCOCCOc4cccc5c4C(=O)N(C4CCC(=O)NC4=O)C5=O)cc3Cl)cc(=O)c2cc1COc1ccccc1C(N)=O (centres unmarked) [Compound 52]	> 250
CCOc1cc2oc(-c3ccc(NCCOCCOCCOCCOc4cccc5c4C(=O)N(C4CCC(=O)NC4=O)C5=O)cc3Cl)cc(=O)c2cc1CN1CCC[C@@H]1CO (some centres unmarked) [Compound 53]	5
CCOc1cc2oc(-c3ccc(OCCOCCOCCOCCOc4cccc5c4C(=O)N(C4CCC(=O)NC4=O)C5=O)cc3Cl)cc(=O)c2cc1-c1cc(C(N)=O)cc(C2CCCCC2)c1 (centres unmarked) [Compound 54]	> 250
CCOc1cc2oc(-c3ccc(OCCOCCOCCOCCOc4cccc5c4C(=O)N(C4CCC(=O)NC4=O)C5=O)cc3Cl)cc(=O)c2cc1-c1cc(C(N)=O)cc(-c2ccccc2)c1 (centres unmarked) [Compound 55]	> 1000
CCOc1cc2oc(-c3ccc(OCCOCCOCCOCCOc4cccc5c4C(=O)N(C4CCC(=O)NC4=O)C5=O)cc3Cl)cc(=O)c2cc1-c1cc(C(N)=O)cc(-c2ccccn2)c1 (centres unmarked) [Compound 56]	> 1000
CCOc1cc2oc(-c3ccc(OCCOCCOCCOCCOc4cccc5c4C(=O)N(C4CCC(=O)NC4=O)C5=O)cc3Cl)cc(=O)c2cc1-c1cc(C(N)=O)cc(-c2cccnc2)c1 (centres unmarked) [Compound 57]	> 1000
CCOc1cc2oc(-c3ccc(OCCOCCOCCOCCOc4cccc5c4C(=O)N(C4CCC(=O)NC4=O)C5=O)cc3Cl)cc(=O)c2cc1-c1cc(C(N)=O)cc(-c2ccncc2)c1 (centres unmarked) [Compound 58]	500
CCOc1cc2oc(-c3ccc(OCCOCCOCCOCCOc4cccc5c4C(=O)N(C4CCC(=O)NC4=O)C5=O)cc3Cl)cc(=O)c2cc1-c1cc(C(N)=O)cc(-c2ncc[nH]2)c1 (centres unmarked) [Compound 59]	> 750
CCOc1cc2oc(-c3ccc(OCCOCCOCCOCCOc4cccc5c4C(=O)N(C4CCC(=O)NC4=O)C5=O)cc3Cl)cc(=O)c2cc1-c1cc(C(N)=O)cc(-n2ccnc2)c1 (centres unmarked) [Compound 60]	> 250
CCOc1cc2oc(-c3ccc(OCCOCCOCCOCCOc4cccc5c4C(=O)N(C4CCC(=O)NC4=O)C5=O)cc3Cl)cc(=O)c2cc1-c1cc(C(N)=O)cc(-c2c[nH]cn2)c1 (centres unmarked) [Compound 61]	> 250
CCOc1cc2oc(-c3ccc(OCCOCCOCCOCCOc4cccc5c4C(=O)N(C4CCC(=O)NC4=O)C5=O)cc3Cl)cc(=O)c2cc1-c1cc(NC)cc(C(N)=O)c1 (centres unmarked) [Compound 62]	> 250
CCOc1cc2oc(-c3ccc(OCCOCCOCCOCCOc4cccc5c4C(=O)N(C4CCC(=O)NC4=O)C5=O)cc3Cl)cc(=O)c2cc1-c1cc(C(N)=O)cc(N(C)C)c1 (centres unmarked) [Compound 63]	> 250
CCOc1cc2oc(-c3ccc(OCCOCCOCCOCCOc4cccc5c4C(=O)N(C4CCC(=O)NC4=O)C5=O)cc3Cl)cc(=O)c2cc1-c1cc(NC(C)=O)cc(C(N)=O)c1 (centres unmarked) [Compound 64]	> 250

Reference: patent publication US20240293559A1, “SHP2 inhibitor, pharmaceutical composition containing the same and application thereof” (BEIJING TIDE PHARMACEUTICAL CO., LTD., priority 2021, published 2024)
